Laboratory results published in US7468391B2, “Methods for treating retinoid responsive disorders using selective inhibitors of CYP26A and CYP26B” (Allergan, Inc., priority 2003, dated 2008).

Columns and labels:
CYP26B (P450RAI-2) = target: T1, CYP26B (P450RAI-2) (Homo sapiens, UniProt Q9NR63); test: Cell-based inhibition of RA metabolism in CYP26B stably transfected HeLa cells; conditions: for IC50: Table 3, stably transfected HeLa cells, [3H]-RA, 3 hours at 37° C., read-out: CYP26B Intact cells IC50
T1 construct: expressed in transfected cells; host or cells: HeLa
T1 sequence (Q9NR63 1-512): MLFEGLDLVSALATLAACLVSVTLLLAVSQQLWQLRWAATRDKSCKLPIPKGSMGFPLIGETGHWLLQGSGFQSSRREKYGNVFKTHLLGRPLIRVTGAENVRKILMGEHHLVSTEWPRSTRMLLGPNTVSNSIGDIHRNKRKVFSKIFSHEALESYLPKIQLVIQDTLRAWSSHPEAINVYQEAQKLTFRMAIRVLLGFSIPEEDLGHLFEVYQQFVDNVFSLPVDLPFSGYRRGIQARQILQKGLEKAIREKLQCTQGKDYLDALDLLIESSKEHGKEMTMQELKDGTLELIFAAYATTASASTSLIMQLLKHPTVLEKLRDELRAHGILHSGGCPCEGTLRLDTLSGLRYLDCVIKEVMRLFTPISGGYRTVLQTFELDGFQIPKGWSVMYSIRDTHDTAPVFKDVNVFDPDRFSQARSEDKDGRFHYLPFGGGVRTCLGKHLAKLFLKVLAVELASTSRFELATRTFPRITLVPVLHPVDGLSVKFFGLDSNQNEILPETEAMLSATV
Summary of the method: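 Stably transfected HeLa cells (5×10^5/well) in MEM with 10% FBS and 0.05 μCi [3H]-RA, compounds at 10, 1 or 0.1 μM final, 3 h at 37° C. Retinoids extracted by modified Bligh-Dyer (methylene chloride); aqueous radioactivity counted; ID50 for 50% inhibition of RA metabolism derived from log-transformed data.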

[1] = tested on: hamster flank organ sebaceous gland; test: Hamster flank organ sebaceous gland differentiation (model for acne); type: in vivo, male golden syrian hamsters; conditions: compared with 13-cis retinoic acid (30 mg/kg), FIG. 3
Procedure: Differentiation of hamster flank organ sebaceous gland is a model system for development of acne. To determine the effectiveness of selective CYP26B inhibitors for treating acne, such inhibitors were tested in this model system. To confirm that this model system can predict the effectiveness of a compound in reducing acne, 13-cis retinoic acid (acutane) was used as a positive control.
For the hamster model system, male golden syrian hamsters were fed LabDiet#5002 rodent diet and housed individually on a 14/10 hr light/dark cycle. For treatment, the animals were randomized according to body weight and they were also weighed at each treatment so that the drug doses could be adjusted accordingly. The animals were treated daily by oral gavage, 6 days/week for 4 weeks. At the end of treatments, the animals were sacrificed by carbon dioxide inhalation. The flank organs were then excised and spread on a small piece of index card which was placed in a histology cassette for fixation in 10% buffered formaldehyde. The specimen was divided into 5 equally spaced portions to make paraffin blocks and one 5-micrometer H&E sections was prepared from each block. The two sections that contained the most sebaceous glands were used to determine the average acini area of the flank organ. A video camera attached to a standard microscope with the 4× objective was used to capture the images of the sebaceous glands. Computer programs Videoshop and NIH Image 1.63 were used to quantify the acini areas. All the recognizable sebaceous glands in the two sections were analyzed and the means were derived for comparison among various treatments. In all studies, blood samples were also collected for determining the levels of serum triglyceride using a triglyceride GPO Trinder kit from Sigma Chemicals (St. Louis, Mo.).

Row | IC50 (CYP26B (P450RAI-2)) | selectivity for CYP26B relative to CYP26A (CYP26B (P450RAI-2); ratio of ID50 values) | Structure (SMILES) | hamster flank sebaceous gland differentiation ([1]; 50 mg/kg) | hamster flank sebaceous gland differentiation ([1]; 12.5 mg/kg)
1 | > 10000 nM | – | CN(C1CC1)C1CCC(C)(C)c2cc(C#Cc3ccc(C(C)(C)C(=O)O)cc3)ccc21 (centres unmarked) [AGN 198790] | reduced hamster flank sebaceous gland differentiation at least as effectively as 13-cis retinoic acid | –
2 | 600 nM | at least 10 fold | CN(Cc1cccc(C#Cc2ccc(/C=C/C(=O)O)cc2)c1)C1CC1 [AGN 199713] | – | reduced hamster flank sebaceous gland differentiation at least as effectively as 13-cis retinoic acid
